Two compounds from patent US20260014204A1, “STEM CELL-DRUG CARRIER COMPRISING MELATONIN-CONTAINING DRUG CARRIER AND STEM CELL AND USES THEREOF” (priority 2024, published 2026) can be followed below.

The assay deals with small intestine epithelial organoids. Kind of assay: Flow cytometry of Ly6a-expressing cells, comparison by drug type. Format: cell-based. Particulars: drug applied together with stem cells (summary statement). How it is done:
In the art, quercetin is known as a therapeutic agent for inflammatory bowel disease. Accordingly, in Example 4, the revival stem cell induction ability of heterospheroids (hereinafter referred to as ‘Mel-HS’) including melatonin microspheres and 3D mesenchymal stem cells prepared in Example 1-1; and heterospheroids (hereinafter referred to as ‘Q-HS’) including quercetin microspheres and 3D mesenchymal stem cells was compared. The Q-HS was prepared by the same method as Example 1-1, but using quercetin instead of melatonin. Mel-HS was treated in small intestine epithelial organoids and then co-cultured for 48 hours. After culturing, cells expressing a revival stem cell marker Ly6a of the small intestine epithelial organoids were analyzed by flow cytometry. In addition, a Q-HS-treated group was also performed in the same manner as described above. As a control group for the experiment, 2D mesenchymal stem cells (2D) or 3D mesenchymal stem cells (3D) were treated. The flow cytometry results of the Mel-HS-treated group were shown in FIG. 4A, and the flow cytometry results of the Q-HS-treated group were shown in FIG. 4B.

As for `COc1ccc2[nH]cc(CCNC(C)=O)c2c1` [melatonin], the “induction of revival stem cells” value is “induced revival stem cells”.

For the compound `O=c1c(O)c(-c2ccc(O)c(O)c2)oc2cc(O)cc(O)c12` [quercetin], the “induction of revival stem cells” value was “no significant effect”.
